In US20100113457A1, “NOVEL PYRIDAZINE DERIVATIVES” (SYNGENTA CROP PROTECTION, INC., priority 2006, published 2010):

Tests used:
Alternaria Solani = experiment: Alternaria solani / tomato / preventive; type: in vivo; conditions: 96 h, spray, tomato plants cv. Roter Gnom, assessed 4 days after inoculation, read-out: inhibition of fungal infestation
Protocol: (§1) Alternaria Solani/Tomato/Preventive (Action Against Alternaria on Tomato) 4 weeks old tomato plants cv. Roter Gnom are treated with the formulated test compound in a spray chamber. Two days after application tomato plants are inoculated by spraying a spore suspension on the test plants. After an incubation period of 4 days at 22° C./18° C. and 95% r. h. in a greenhouse the disease incidence is assessed.

Botrytis Cinerea = experiment: Botrytis cinerea / tomato / preventive; type: in vivo; conditions: 72 h, spray, tomato plants cv. Roter Gnom, assessed 3 days after inoculation, read-out: inhibition of fungal infestation
Protocol: as §1, with “Botrytis Cinerea/Tomato/Preventive (Action” for “Alternaria Solani/Tomato/Preventive (Action”, “Against Botrytis” for “Against Alternaria”, “of 3” for “of 4”, “at 20°” for “at 22° C./18°”

Puccinia Recondita = experiment: Puccinia recondita / wheat / preventive (brown rust); type: in vivo; conditions: 264 h, spray, wheat plants cv. Arina, assessed 11 days after inoculation, read-out: inhibition of fungal infestation
Protocol: Puccinia Recondita/Wheat/Preventive (Action Against Brown Rust on Wheat) 1 week old wheat plants cv. Arina are treated with the formulated test compound in a spray chamber. One day after application wheat plants are inoculated by spraying a spore suspension ([…] uredospores/ml) on the test plants. After an incubation period of 1 day at 20° C. and 95% r. h. plants are kept for 10 days 20° C./18° C. (day/night) and 60% r.h. in a greenhouse. The disease incidence is assessed 11 days after inoculation.

[1] = system: Magnaporthe Grisea (Pyricularia oryzae); experiment: whole plant or invertebrate; type: in vivo; conditions: 144 h, read-out: inhibition of fungal infestation
[2] = system: Prenophora Teres (Helminthosporium Teres); experiment: Pyrenophora teres / barley / preventive (net blotch); type: in vivo; conditions: 96 h, spray, barley plants cv. Regina, assessed 4 days after inoculation, read-out: inhibition of fungal infestation
Protocol: Prenophora Teres (Helminthosporium Teres)/Barley/Preventive (Action Against Net Blotch on Barley) 1-week-old barley plants cv. Regina are treated with the formulated test compound in a spray chamber. Two days after application barley plants are inoculated by spraying a spore suspension (2.6×10^4 conidia/ml) on the test plants. After an incubation period of 4 days at 20° C. and 95% r. h. the disease incidence is assessed.

Septoria Tritici = experiment: Septoria tritici / wheat / preventive (leaf spot); type: in vivo; conditions: Zymoseptoria tritici, spray, wheat plants cv. Riband, assessed 16-18 days after inoculation, read-out: inhibition of fungal infestation
Protocol: Septoria Tritici/Wheat/Preventive (Action Against Septoria Leaf Spot on Wheat) 2 weeks old wheat plants cv. Riband are treated with the formulated test compound in a spray chamber. One day after application wheat plants are inoculated by spraying a spore suspension (10^6 conidia/ml) on the test plants. After an incubation period of 1 day at 22° C./21° C. and 95% r. h. plants are kept at 22° C./21° C. and 70% r.h. in a greenhouse. The disease incidence is assessed 16-18 days after inoculation.

Uncinula Necator = experiment: Uncinula necator / grape / preventive (powdery mildew); type: in vivo; conditions: Erysiphe necator, 168 h, spray, grape seedlings cv. Gutedel, assessed 7 days after inoculation, read-out: inhibition of fungal infestation
Protocol: Uncinula Necator/Drape/Preventive (Action Against Powdery Mildew on Grape) 5 weeks old grape seedlings cv. Gutedel are treated with the formulated test compound in a spray chamber. One day after application grape plants are inoculated by shaking plants infected with grape powdery mildew above the test plants. After an incubation period of 7 days at 24° C./22° C. and 70% r. h. under a light regime of 14/10 h (light/dark) the disease incidence is assessed.

Cc1nnc(F)c(-c2c(F)cc(F)cc2F)c1-c1ccc(Cl)cc1 [I.c.127, 4-(4-chlorophenyl)-6-fluoro-3-methyl-5-(2,4,6-trifluorophenyl)-pyridazine]
inhibition at 200 ppm (Alternaria Solani): ≥ 80% | inhibition at 200 ppm (Botrytis Cinerea): ≥ 80% | inhibition at 200 ppm (Puccinia Recondita): ≥ 80% | inhibition at 200 ppm [1]: ≥ 80% | inhibition at 200 ppm [2]: ≥ 80% | inhibition at 200 ppm (Septoria Tritici): ≥ 80% | inhibition at 200 ppm (Uncinula Necator): ≥ 80%

Cc1nnc(OCC(F)(F)F)c(-c2c(F)cc(F)cc2F)c1-c1ccc(Cl)cc1 [I.c.129, 4-(4-chlorophenyl)-3-methyl-6-(2,2,2-trifluoroethoxy)-5-(2,4,6-trifluorophenyl)-pyridazine]
inhibition at 200 ppm (Alternaria Solani): ≥ 80% | inhibition at 200 ppm (Septoria Tritici): ≥ 80% | inhibition at 200 ppm (Uncinula Necator): ≥ 80% | melting point: 105 to 108 °C
